Test results: patent publication US6515173B1, “Inhibitors of the ICE/ced-3 family of cysteine proteases” (Idun Pharmaceuticals, Inc., priority 2000, dated 2003)
pKi: −log10 of the molar value. Peptide text beside a SMILES is read from it. * marks the point of attachment. Cbz = O=C(OCc1ccccc1)*; CH2F = FC*

Experiments:
Type in all cases: biochemical
Conditions in all cases: continuous assay sixty minutes, reaction initiated by adding enzyme to substrate-inhibitor mixture; Ki by simulating AMC formation (Equation 1)
MCH-2 = biological target: T1, MCH-2 (Homo sapiens, UniProt P55212); test: Ki determination, ICE/ced-3 family protease fluorescence assay (MCH-2)
T1 sequence (P55212 24-179 limits assumed): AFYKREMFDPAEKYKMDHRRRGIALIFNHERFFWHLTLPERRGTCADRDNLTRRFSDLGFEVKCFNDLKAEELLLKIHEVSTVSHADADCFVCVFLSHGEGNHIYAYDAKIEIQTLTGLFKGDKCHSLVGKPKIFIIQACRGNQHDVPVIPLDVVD
T1 sequence (P55212 194-293 limits assumed): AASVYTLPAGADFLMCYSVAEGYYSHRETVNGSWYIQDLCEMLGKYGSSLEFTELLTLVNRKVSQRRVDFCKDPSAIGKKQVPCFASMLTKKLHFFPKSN
Protocol: (§1) Fluorescence enzyme assays detecting the activity of the compounds of Formula I utilizing the recombinant ICE and CPP32 enzymes are performed essentially according to Thorrberry et al. (Nature, 356:768:774 (1992)) and Nicholson et al. (Nature, 376:37-43 (1995)) respectively, (herein incorporated by reference) in 96 well microtiter plates. The substrate is Acetyl-Tyr-Val-Ala-Asp-amino-4-methylcoumarin (AMC) (SEQ ID NO: 1) for the ICE assay and Acetyl-Asp-Glu-Val-Asp-amino-4-methylcoumarin (SEQ ID NO: 2) for the CPP32, Mch2, Mch3 and Mch5 assays. Enzyme reactions are run in ICE buffer (25 mM HEPES, 1 mM EDTA, 0.1% CHAPS, 10% sucrose, pH 7.5) containing 2 mM DTT at room temperature in duplicate. The assays are performed by mixing the following components:
(§2) 50 μL ICE, Mch2, Mch5, CPP32 (18.8, 38, 8.1 and 0.153 nM concentrations, respectively) or Mch3 (1 unit) enzyme in ICE buffer containing either 8.0 (ICE, Mch2, Mch3, CPP32) or 20 (Mch5) mM DTT;
(§3) 50 μL compound of Formula I or ICE buffer (control); and […]
(§4) […] Fluorescent AMC product formation is monitored for one hour at room temperature by measuring the fluorescence emission at 460 nm using an excitation wavelength of 360 nm. […]
(§5) The product formation at time t may be expressed as: [formula] […]
(§6) The activity of a representative compound of this invention (i.e., Compound No. 1) evaluated according to the procedures disclosed in Example 1. […]

CPP32 = biological target: T2, CPP32 (Homo sapiens, UniProt P42574); test: Ki determination, ICE/ced-3 family protease fluorescence assay (CPP32)
T2 sequence (P42574 29-175 limits assumed): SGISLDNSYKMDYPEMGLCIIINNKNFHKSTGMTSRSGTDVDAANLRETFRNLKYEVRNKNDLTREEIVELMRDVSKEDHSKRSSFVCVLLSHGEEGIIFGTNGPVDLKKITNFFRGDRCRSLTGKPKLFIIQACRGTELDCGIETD
T2 sequence (P42574 176-277 limits assumed): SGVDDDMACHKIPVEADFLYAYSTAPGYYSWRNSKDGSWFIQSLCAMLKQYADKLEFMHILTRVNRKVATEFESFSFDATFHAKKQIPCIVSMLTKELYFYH
Protocol: as §1, §2, §3, §4, §5, §6

mICE = biological target: T3, mICE (Mus musculus, UniProt P29452); test: Ki determination, ICE/ced-3 family protease fluorescence assay (mICE)
T3 sequence (P29452 123-296 limits assumed): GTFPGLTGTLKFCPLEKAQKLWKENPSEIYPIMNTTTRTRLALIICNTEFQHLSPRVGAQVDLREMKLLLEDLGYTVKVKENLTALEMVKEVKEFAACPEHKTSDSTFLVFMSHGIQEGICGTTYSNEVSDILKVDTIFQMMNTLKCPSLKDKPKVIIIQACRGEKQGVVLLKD
T3 sequence (P29452 315-402 limits assumed): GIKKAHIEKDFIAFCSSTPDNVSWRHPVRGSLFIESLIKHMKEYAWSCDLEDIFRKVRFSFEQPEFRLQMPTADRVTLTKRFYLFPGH
Protocol: as §1, §2, §3, §4, §5, §6

MCH-5 = MCH-5 (Homo sapiens, UniProt Q14790); test: Ki determination, ICE/ced-3 family protease fluorescence assay (MCH-5)
Protocol: as §1, §2, §3, §4, §5, §6

Row | Compound | Ki (MCH-2) [µM] | pKi (CPP32) | pKi (mICE) | pKi (MCH-5)
1 | C[C@H](NC(=O)C(=O)Nc1ccccc1C(C)(C)C)C(=O)N[C@@H](CC(=O)NS(C)(=O)=O)C(=O)COc1c(F)c(F)cc(F)c1F [compound 1] | 0.681 | 6.07 | 8.40 | 7.96
2 | CC(NC(=O)C(NC(=O)OCc1ccccc1)C(C)C)C(=O)NC(CC(=O)O)C(=O)CF (stereo not drawn) [reference, Cbz-ValAlaAsp-CH2F] (Cbz-Val-Ala-Asp-CH2F; configuration not given here) | 0.594 | 6.09 | 7.82 | 7.74
